One assay relates to MCF-7 cells. Kind of assay: Breast cancer cell viability assay (CellTiter-Glo, 5 days). The settings on record: 5 days' compound exposure; for IC50: Homo sapiens, MCF7, 120 h. Type of assay: cell-based. In short, it runs like this: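 MCF-7 cells, 320 per well in RPMI with 10% FBS and 20 mM HEPES, adhered overnight, then exposed 5 days to an eleven-point semilog dilution (final 0.3-0.000003 μM). CellTiter-Glo luminescence read; % viability = (sample − cell-free background)/(untreated − background) × 100.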
(In general: Cellular ATP, detected with luciferase, serves as a proxy for viable cell number.)

The next assay concerns the target T1, ER-α in MCF-7 cells (Homo sapiens, UniProt P03372).
T1 sequence (P03372 1-595): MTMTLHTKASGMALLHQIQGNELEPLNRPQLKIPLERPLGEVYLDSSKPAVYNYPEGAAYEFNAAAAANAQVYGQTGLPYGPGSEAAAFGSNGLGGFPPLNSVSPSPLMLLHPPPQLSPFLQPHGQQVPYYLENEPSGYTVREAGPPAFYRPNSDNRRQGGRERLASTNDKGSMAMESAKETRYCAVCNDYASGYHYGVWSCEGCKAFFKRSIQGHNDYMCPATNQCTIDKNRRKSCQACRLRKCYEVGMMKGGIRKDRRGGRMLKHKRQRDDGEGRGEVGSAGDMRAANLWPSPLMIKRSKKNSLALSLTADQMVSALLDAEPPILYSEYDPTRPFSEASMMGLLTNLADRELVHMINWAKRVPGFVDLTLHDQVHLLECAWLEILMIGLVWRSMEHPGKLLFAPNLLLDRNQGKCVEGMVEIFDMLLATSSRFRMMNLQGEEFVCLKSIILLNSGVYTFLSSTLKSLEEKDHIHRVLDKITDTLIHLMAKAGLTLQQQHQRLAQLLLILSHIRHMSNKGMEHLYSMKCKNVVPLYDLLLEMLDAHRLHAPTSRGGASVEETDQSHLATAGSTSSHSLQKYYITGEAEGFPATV
Briefly: Breast cancer cell ER-α in cell western assay (SP1). Also noted: endogenous in cells; host or cells: MCF-7. Type of assay: cell-based. The settings on record: 4 or 24 hr post compound addition; for Emax: MCF7, SP1 antibody, read-out: ER-α In Cell Western Assay (SP1) Max Response; for DC50: SP1 antibody, read-out: ER-α In Cell Western Assay (SP1) IC50. In short, it runs like this: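 Percent remaining ER: SP1 immunofluorescence normalized to DRAQ5 nuclear stain, compared with untreated controls. Treatment lasted 4 or 24 hr across 0.3–0.000003 μM final in MCF-7.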

Bounds are passed on as bounds.

For orientation: IC50 means the midpoint of a concentration-inhibition curve. Low readings indicate greater potency, high ones weaker potency. For the compound `CC/C(=C(/c1ccc(/C=C/C(=O)O)cc1)c1ccc2[nH]ncc2c1)c1cc2ccccc2s1` [Compound 268, (E)-3-(4-((E)-2-(Benzo[b]thiophen-2-yl)-1-(1H-indazol-5-yl)but-1-en-1-yl)phenyl)acrylic acid], in the assay with MCF-7 cells, the “MCF7 Viability Assay Max Response” value is recorded as “++ (++ = a single % value ≧ 40%)” and the IC50 was above 100 nM. At ER-α in MCF-7 cells, the Emax is at least 40% and the DC50 was at most 100 nM.

For `CC/C(=C(/c1ccc(/C=C/C(=O)O)cc1)c1ccc2c(c1)C(=O)NC2)c1ccccc1` [Compound 104, (E)-3-(4-((E)-1-(3-Oxoisoindolin-5-yl)-2-phenylbut-1-en-1-yl)phenyl)acrylic acid], in the assay on MCF-7 cells, the “MCF7 Viability Assay Max Response” value is “++ (++ = a single % value ≧ 40%)” and the IC50 was above 100 nM. For the same compound, at ER-α in MCF-7 cells, the Emax was at least 40% and the DC50 was above 100 nM.

`CC/C(=C(/c1ccc(/C=C/C(=O)O)cc1)c1cnn2ccccc12)c1ccccc1` [Compound 148, (E)-3-(4-((E)-2-Phenyl-1-(pyrazolo[1,5-a]pyridin-3-yl)but-1-en-1-yl)phenyl)acrylic acid]: in the assay on MCF-7 cells, the “MCF7 Viability Assay Max Response” value was “++ (++ = a single % value ≧ 40%)” and the concentration for half-maximal inhibition (IC50) was above 100 nM. On ER-α in MCF-7 cells, the Emax is at least 40% and the DC50 is above 100 nM.

For `CC/C(=C(/c1ccc(/C=C/C(=O)O)cc1)c1ccc2[nH]ncc2c1)c1cccc(Oc2ccc(S(C)(=O)=O)nc2)c1` [Compound 380, (E)-3-(4-((E)-1-(1H-Indazol-5-yl)-2-(3-((6-(methylsulfonyl)pyridin-3-yl)oxy)phenyl)but-1-en-1-yl)phenyl)acrylic acid], in the assay with MCF-7 cells, the “MCF7 Viability Assay Max Response” value is given as “++ (++ = a single % value ≧ 40%)” and the IC50 is above 100 nM. In addition, at ER-α in MCF-7 cells, the Emax is at least 40% and the DC50 was at most 100 nM.

Consider `CC/C(=C(/c1ccc(/C=C/c2noc(=S)[nH]2)cc1)c1ccc2[nH]ncc2c1)c1ccc(F)cc1Cl` [Compound 441, 3-((E)-4-((E)-2-(2-Chloro-4-fluorophenyl)-1-(1H-indazol-5-yl)but-1-en-1-yl)styryl)-1,2,4-oxadiazole-5(4H)-thione], for which, in the assay with MCF-7 cells, the “MCF7 Viability Assay Max Response” value is on record as “+ (+ = a single % value < 40%)” and the IC50 was at most 100 nM. For the same compound, at ER-α in MCF-7 cells, the Emax was at least 40% and the DC50 was at most 100 nM.

Take `CC/C(=C(/c1ccc(/C=C/C(=O)O)cc1)c1ccc2[nH]ncc2c1)c1cccc(Oc2ccc(F)cc2)c1` [Compound 269, (E)-3-(4-((E)-2-(3-(4-Fluorophenoxy)phenyl)-1-(1H-indazol-5-yl)but-1-en-1-yl)phenyl)acrylic acid]: in the assay with MCF-7 cells, the “MCF7 Viability Assay Max Response” value is given as “++ (++ = a single % value ≧ 40%)” and the IC50 is at most 100 nM. In addition, on ER-α in MCF-7 cells, the Emax was at least 40% and the DC50 is at most 100 nM.

As for `CC/C(=C(/c1ccc(/C=C/C(=O)O)cc1)c1ccc2[nH]ncc2c1)c1cnccn1` [Compound 219, (E)-3-(4-((E)-1-(1H-Indazol-5-yl)-2-(pyrazin-2-yl)but-1-en-1-yl)phenyl)acrylic acid], in the assay on MCF-7 cells, the “MCF7 Viability Assay Max Response” value was “++ (++ = a single % value ≧ 40%)” and the concentration for half-maximal inhibition (IC50) is above 100 nM. On ER-α in MCF-7 cells, the Emax is at least 40% and the DC50 is above 100 nM.

`CC/C(=C(/c1ccc(/C=C/C(=O)O)cc1)c1ccc2[nH]ncc2c1F)c1cccc(OC2CCN(C)CC2)c1` [Compound 343, (E)-3-(4-((E)-1-(4-Fluoro-1H-indazol-5-yl)-2-(3-((1-methylpiperidin-4-yl)oxy)phenyl)but-1-en-1-yl)phenyl)acrylic acid]: in the assay with MCF-7 cells, the “MCF7 Viability Assay Max Response” value is “++ (++ = a single % value ≧ 40%)” and the IC50 was above 100 nM. At ER-α in MCF-7 cells, the Emax was at least 40% and the DC50 was above 100 nM.

In the case of `CC/C(=C(/c1ccc(/C=C/C(=O)O)cc1)c1ccc2scnc2c1)c1ccccc1C` [Compound 283, (E)-3-(4-((E)-1-(Benzo[d]thiazol-5-yl)-2-(o-tolyl)but-1-en-1-yl)phenyl)acrylic acid], in the assay with MCF-7 cells, the “MCF7 Viability Assay Max Response” value is given as “++ (++ = a single % value ≧ 40%)” and the IC50 was at most 100 nM. In addition, on ER-α in MCF-7 cells, the Emax is at least 40% and the DC50 is at most 100 nM.

As to `CC/C(=C(/c1ccc(/C=C/C(=O)O)cc1)c1ccc2nn(C(F)F)cc2c1)c1ccc(F)cc1Cl` [Compound 402, (E)-3-(4-((E)-2-(2-Chloro-4-fluorophenyl)-1-(2-(difluoromethyl)-2H-indazol-5-yl)but-1-en-1-yl)phenyl)acrylic acid], in the assay with MCF-7 cells, the “MCF7 Viability Assay Max Response” value was “++ (++ = a single % value ≧ 40%)” and the IC50 is at most 100 nM. For the same compound, on ER-α in MCF-7 cells, the Emax is at least 40% and the DC50 was at most 100 nM.

Turning to `CC/C(=C(/c1ccc(/C=C/C(=O)O)cc1)c1ccc2[nH]ncc2c1)c1ccc(Oc2ccccc2)c(C)c1` [Compound 320, (E)-3-(4-((E)-1-(1H-Indazol-5-yl)-2-(3-methyl-4-phenoxyphenyl)but-1-en-1-yl)phenyl)acrylic acid], in the assay on MCF-7 cells, the “MCF7 Viability Assay Max Response” value is recorded as “++ (++ = a single % value ≧ 40%)” and the IC50 was at most 100 nM. For the same compound, on ER-α in MCF-7 cells, the Emax was at least 40% and the DC50 was at most 100 nM.

As for `CC/C(=C(/c1ccc(/C=C/C(=O)O)cc1)c1ccc2c(c1)COC(=O)N2)c1ccccc1` [Compound 101, (E)-3-(4-((E)-1-(2-Oxo-2,4-dihydro-1H-benzo[d][1,3]oxazin-6-yl)-2-phenylbut-1-en-1-yl)phenyl)acrylic acid], in the assay with MCF-7 cells, the “MCF7 Viability Assay Max Response” value is listed as “++ (++ = a single % value ≧ 40%)” and the IC50 is above 100 nM. Moreover, on ER-α in MCF-7 cells, the Emax is at least 40% and the DC50 is above 100 nM.

`CC/C(=C(/c1ccc2cc(/C=C/C(=O)O)ccc2c1)c1ccc2[nH]ncc2c1)c1ccccc1` [Compound 180, (E)-3-(6-((E)-1-(1H-Indazol-5-yl)-2-phenylbut-1-en-1-yl)naphthalen-2-yl)acrylic acid]: in the assay with MCF-7 cells, the “MCF7 Viability Assay Max Response” value was “++ (++ = a single % value ≧ 40%)” and the IC50 is at most 100 nM. For the same compound, on ER-α in MCF-7 cells, the Emax is at least 40% and the DC50 is at most 100 nM.

For `CC/C(=C(/c1ccc(/C=C/C(=O)O)cc1)c1ccc2[nH]ncc2c1)c1ccc(-c2cnsc2)cc1` [Compound 395, (E)-3-(4-((E)-1-(1H-Indazol-5-yl)-2-(4-(isothiazol-4-yl)phenyl)but-1-en-1-yl)phenyl)acrylic acid], in the assay on MCF-7 cells, the “MCF7 Viability Assay Max Response” value is reported as “++ (++ = a single % value ≧ 40%)” and the IC50 is above 100 nM. On ER-α in MCF-7 cells, the Emax is at least 40% and the DC50 was at most 100 nM.

On to `CC/C(=C(/c1ccc(/C=C/C(=O)O)cc1)c1coc2c(OC)cccc12)c1ccccc1` [Compound 163, (E)-3-(4-((E)-1-(7-Methoxybenzofuran-3-yl)-2-phenylbut-1-en-1-yl)phenyl)acrylic acid], for which, in the assay on MCF-7 cells, the “MCF7 Viability Assay Max Response” value is on record as “++ (++ = a single % value ≧ 40%)” and the IC50 was at most 100 nM. At ER-α in MCF-7 cells, the Emax is at least 40% and the DC50 was at most 100 nM.

As for `CC/C(=C(/c1ccc(/C=C/C(=O)O)cc1)c1ccc2[nH]ncc2c1)c1ccc2c(c1)CCO2` [Compound 256, (E)-3-(4-((E)-2-(2,3-Dihydrobenzofuran-5-yl)-1-(1H-indazol-5-yl)but-1-en-1-yl)phenyl)acrylic acid], in the assay on MCF-7 cells, the “MCF7 Viability Assay Max Response” value is “++ (++ = a single % value ≧ 40%)” and the IC50 is at most 100 nM. At ER-α in MCF-7 cells, the Emax is at least 40% and the DC50 was at most 100 nM.

On to `CC/C(=C(/c1ccc(/C=C/C(=O)O)cc1)c1ccc2[nH]ncc2c1F)c1cccc(OC2CCCCC2)c1` [Compound 345, (E)-3-(4-((E)-2-(3-(Cyclohexyloxy)phenyl)-1-(4-fluoro-1H-indazol-5-yl)but-1-en-1-yl)phenyl)acrylic acid], for which, in the assay with MCF-7 cells, the “MCF7 Viability Assay Max Response” value was “++ (++ = a single % value ≧ 40%)” and the IC50 was at most 100 nM. For the same compound, at ER-α in MCF-7 cells, the Emax is at least 40% and the DC50 is at most 100 nM.

With `CC/C(=C(/c1ccc(/C=C/C(=O)O)cc1)c1ccc2[nH]ncc2c1)c1ccc(OCCOC)cc1` [Compound 339, (E)-3-(4-((E)-1-(1H-Indazol-5-yl)-2-(4-(2-methoxyethoxy)phenyl)but-1-en-1-yl)phenyl)acrylic acid], in the assay with MCF-7 cells, the “MCF7 Viability Assay Max Response” value is on record as “++ (++ = a single % value ≧ 40%)” and the IC50 is at most 100 nM. Also, on ER-α in MCF-7 cells, the Emax was at least 40% and the DC50 is at most 100 nM.

Consider `CC/C(=C(/c1ccc(/C=C/C(=O)O)cc1)c1ccc2[nH]ncc2c1)c1cccc(-c2nccs2)c1` [Compound 391, (E)-3-(4-((E)-1-(1H-Indazol-5-yl)-2-(3-(thiazol-2-yl)phenyl)but-1-en-1-yl)phenyl)acrylic acid], for which, in the assay with MCF-7 cells, the “MCF7 Viability Assay Max Response” value is “++ (++ = a single % value ≧ 40%)” and the IC50 was at most 100 nM. Moreover, on ER-α in MCF-7 cells, the Emax was at least 40% and the DC50 is at most 100 nM.

The record behind these values is patent publication US9399646B2 (Genentech, Inc., priority 2010, dated 2016).
